Data published in patent KR20170021349A, “다양한 질병의 치료를 위한 jnk 신호 전달 경로의 세포 투과성 펩타이드 억제자의 새로운 용도” (자이겐 인플라메이션 리미티드, priority 2014, dated 2017).

Experiments:
TC-3 cells [1] = experiment: Cellular import of fluorescein-labelled TAT and TAT-IB1(s) peptides; type: cell-based
[2] = tested on: recombinant JNK1, JNK2, JNK3; experiment: Solid-phase kinase assay: JNK-mediated phosphorylation of c-Jun, ATF2, Elk1; type: biochemical; settings: GST-Jun (aa 1-73), 0-250 μM
TC-3 cells [3] = experiment: IL-1-induced pancreatic beta-cell apoptosis; type: cell-based; settings: 1 μM single addition, 15 days IL-1
[4] = tested on: Varicella Zoster Virus (VZV); experiment: Plaque reduction assay against VZV in HFFs; type: cell-based; settings: for VZV spread (pfu) ± SD: 24 h
[5] = tested on: Varicella Zoster Virus (VZV); experiment: VZV-BAC-Luc replication (luciferase) in HFFs; type: cell-based; settings: 24 h
[6] = Phase I single ascending i.v. dose study, healthy male volunteers; type: in vivo, human
rats = experiment: Adriamycin-induced nephropathy; type: in vivo, rat
rat pancreatic islets [7] = experiment: Rat islet isolation after warm ischemia; type: cell-based
rat pancreatic islets [8] = experiment: Rat islets, 4 h hypoxia; type: cell-based; settings: 100 μM
Wistar rats [9] = experiment: Ligature-induced periodontitis; type: in vivo, rat; settings: day 17
[10] = Phase II trial, post-surgery intraocular inflammation, vs dexamethasone eye drops; type: in vivo, human
[11] = tested on: Hep G2 tumours in SWISS nude mice; experiment: Orthotopic Hep G2 human liver carcinoma, 1 mg/kg; type: in vivo, mouse
Wistar rats [12] = experiment: Renal ischemia/reperfusion, 40 min clamping; type: in vivo, rat; settings: 2 mg/kg i.v. 1 h after clamping; 24 h
[13] = tested on: female Sprague-Dawley rats; experiment: Cyclophosphamide (CYP)-induced acute cystitis, intravesical treatment; type: in vivo, rat; settings: 24 h after CYP
[14] = tested on: female Sprague-Dawley rats; experiment: CYP-induced acute cystitis, intravenous treatment, visceral pain; type: in vivo, rat; settings: 2 mg/kg i.v.
[15] = tested on: primary mouse cortical neurons (WT); experiment: Aβ42-induced stress/apoptosis in WT cortical neurons; type: cell-based
[16] = tested on: primary cortical neurons of PKR-/- mice; experiment: Aβ42-induced stress/apoptosis in PKR-/- cortical neurons; type: cell-based, mouse
[17] = Distribution of C14-labelled peptide, 72 h after s.c., i.v., i.p.; type: in vivo, mouse; settings: 1 mg/kg, Fig. 25
[18] = Immunostaining of liver 24 h after 1 mg/kg i.v.; type: in vivo, rat; settings: Fig. 26
Jurkat cells = experiment: PMA & ionomycin-induced cytokine production; type: cell-based; settings: Fig. 27 D-F
murine macrophages = experiment: LPS-induced cytokine release in primary cells; type: cell-based, mouse; settings: Fig. 28 A-C, non-toxic concentrations
murine T cells = experiment: PMA & ionomycin-induced cytokine production in primary cells; type: cell-based, mouse; settings: Fig. 28 D-E
[19] = Ocular MTD study, subconjunctival; type: in vivo, rat
[20] = Previous open-label dose-escalation trial in post-surgery/post-trauma intraocular inflammation; type: in vivo, human; settings: 45, 90, 450, 900 μg subconj., 20 patients
[21] = 10 μM pre-treatment, 2 μM Aβ42 5 h (Example 49)
[22] = peptide pre-treatment 1 h (XG-102 10 μM), 2 μM Aβ42
[23] = dual PKR and JNK inhibition, 10 μM

NH2-DQSRPVQPFLNLTTPRKPRPPRRRQRRKKRG-COOH (H-DQSRPVQPFLNLTTPRKPRPPRRRQRRKKRG-OH; also: D-amino acids (positions not given here)) [XG-102]
time to enter cells (TC-3 cells [1]; 1 μM labelled peptide): < 5 분 | stability inside cells (TC-3 cells [1]; time course): 극도로 안정하다 | fold less efficient than L-TAT-IB1(s) in decreasing JNK-mediated c-Jun phosphorylation [2]: 10-20 배 | long-term protection against IL-1-induced cell death (TC-3 cells [3]): 보호를 부여할 수 있었으나 | VZV spread (pfu) ± SD ([4]; 0.5 μM): 260 ± 53 pfu | VZV spread (pfu) ± SD ([4]; 1.0 μM): 212 ± 48 pfu | VZV spread (pfu) ± SD ([4]; 2.0 μM): 312 ± 79 pfu | EC50 ([4]; interpolated from graph, read-out: EC50 (50% reduction of VZV yield)): ~300 nM | lowest tested concentration preventing VZV replication [5]: 0.25 µM | time at which plasma concentration fell below LLOQ ([6]; 10 μg/kg i.v. infusion): ≤ 2 시간 | time at which plasma concentration fell below LLOQ ([6]; 40 μg/kg, after start of infusion): 3 시간 | time at which plasma concentration fell below LLOQ ([6]; 80 μg/kg, after start of infusion): ≤ 7 시간 | inter-subject variability of PK parameters (CV% of geometric mean) ([6]; 80 μg/kg, except MRT): 29-44% | increase of AUC0-last with dose ([6]; 10-80 μg/kg): 선형 이상의 비율로 증가했다 | inter-subject variability of PK parameters (CV% of geometric mean) ([6]; 10 and 40 μg/kg, most parameters): 15-30% | increase of Cmax with dose ([6]; 40 to 80 μg/kg): 선형 이상의 비율로 증가하는 것으로 나타났다 | safety and tolerability ([6]; single i.v. 10, 40 or 80 μg/kg): 안전하고 내약성이 우수했다 | development of glomerular and tubulointerstitial fibrosis (rats; 2 mg/kg i.v. day 0): 발생을 예방하고 | effect on adriamycin-induced nephropathy (histology) (rats; 20, 200, 2000 μg/kg i.v., days 8-41): 현저하게 긍정적인 효과를 갖는다 | serum urea level throughout the disease course (rats; ADR 10 mg/kg + XG-102 2 mg/kg i.v. day 0, up to day 56): ≤ 10 mmol/L | adverse effect on proteinuria (rats; albumin ELISA, Fig. 41): 어떠한 역효과도 유발하지 않는 | c-jun expression in the interstitium (rats; days 8 and 14, Fig. 46-47): 현저한 감소를 초래 | islet function (static insulin secretion) after 18 h culture (rat pancreatic islets [7]; 15-min ischemia): 섬 기능에 영향을 미치지 않았다 | glucose-induced insulin secretion vs ischemic rats (rat pancreatic islets [7]; 30-min ischemia, 100 μM): 더 높았으며 | islet apoptosis and necrosis (rat pancreatic islets [7]; 30-min ischemia, 100 μM): 세포 자멸 및 괴사를 감소시키는 | JNK and PAF2 phosphorylation induced by 15-min ischemia (rat pancreatic islets [7]; Western blot, Fig. 56): 투여량 의존적으로 감소되는 | hypoxia-induced phosphorylation of JNK and JUN (rat pancreatic islets [8]; 1 h pre-treatment + 4 h hypoxia): 인산화를 억제하지 않았다 | islet apoptosis and necrosis (rat pancreatic islets [8]; normoxia and hypoxia): 감소되었다 | alveolar bone height loss (ABHL) (Wistar rats [9]): 골 파괴가 덜 심함 | IL1-β expression vs placebo (Wistar rats [9]; gingival tissue ELISA): 현저하게 감소되었다 | gingival inflammation (GI) level (Wistar rats [9]; single intragingival dose day 10): GI 수준을 강하게 감소시켰다 | AEs leading to interruption of study treatment, events (%) ([10]; 90 μg): 11 (14.1%) | mild AEs, number of events (% of reported events) ([10]; 90 μg): 55 (70.5%) | moderate AEs, number of events (%) ([10]; 90 μg): 6 (7.7%) | patients with an AE within 24 h of administration ([10]; 90 μg): 34% | patients with intraocular pressure increased ([10]; 90 μg): 23% | severe AEs, number of events (%) ([10]; 90 μg): 17 (21.7%) | SOC eye disorders, patients ([10]; 90 μg (26 patients), p=0.025 vs dexamethasone): 55% | premature withdrawal of study eye drops, patients (%) ([10]; 90 μg (N=47)): 10 (21.3%) | overall tolerability ([10]; 90 μg and 900 μg): 내약성이 우수하였다 | anterior chamber cell grade vs dexamethasone, days 7 and 14 ([10]; 90 μg and 900 μg, FAS): 통계적으로 현저한 차이가 없었다 | anterior chamber flare grade vs dexamethasone, days 7, 14, 28 ([10]; 90 μg and 900 μg, FAS): 통계적으로 현저한 차이가 없었다 | difference in anterior chamber cell grade vs dexamethasone, day 28 ([10]; 90 μg single subconj. inj., PP, 95% CI -0.214-0.385, p=0.003): 0.086 | patients with an adverse event ([10]; 90 μg, 31/47): 66% | difference in anterior chamber cell grade vs dexamethasone, day 28 ([10]; 90 μg, FAS, 95% CI -0.215-0.321, p<0.001): 0.053 | odds of cleared ocular inflammation vs usual treatment group ([10]; 90 μg, FAS, day 7): 0.52 | odds of cleared ocular inflammation vs usual treatment group ([10]; 90 μg, FAS, day 14): 0.85 | odds of cleared ocular inflammation vs usual treatment group ([10]; 90 μg, FAS, day 28): 1.24 | odds of cleared ocular inflammation vs usual treatment group ([10]; 90 μg, PP, day 7): 0.56 | odds of cleared ocular inflammation vs usual treatment group ([10]; 90 μg, PP, day 14): 0.97 | odds of cleared ocular inflammation vs usual treatment group ([10]; 90 μg, PP, day 28): 1.45 | patients with rescue medication introduced ([10]; 90 μg, p=0.013 vs dexamethasone): 21.3% | AEs leading to interruption of study treatment, events (%) ([10]; 900 μg): 8 (11.6%) | mild AEs, number of events (%) ([10]; 900 μg): 49 (71.0%) | moderate AEs, number of events (%) ([10]; 900 μg): 12 (17.4%) | patients with an AE within 24 h of administration ([10]; 900 μg): 27% | patients with intraocular pressure increased ([10]; 900 μg): 10% | severe AEs, number of events (%) ([10]; 900 μg): 8 (11.6%) | SOC eye disorders, patients ([10]; 900 μg (24 patients)): 50% | premature withdrawal of study eye drops, patients (%) ([10]; 900 μg (N=48)): 8 (16.7%) | difference in anterior chamber cell grade vs dexamethasone, day 28 ([10]; 900 μg single subconj. inj., PP, 95% CI -0.350-0.242, non-inferior p<0.001): -0.054 | patients with an adverse event ([10]; 900 μg, 32/48): 67% | difference in anterior chamber cell grade vs dexamethasone, day 28 ([10]; 900 μg, FAS, 95% CI -0.301-0.238, p<0.001): -0.032 | odds of cleared ocular inflammation vs usual treatment group ([10]; 900 μg, FAS, day 7): 0.76 | odds of cleared ocular inflammation vs usual treatment group ([10]; 900 μg, FAS, day 14): 1.25 | odds of cleared ocular inflammation vs usual treatment group ([10]; 900 μg, FAS, day 28): 1.13 | odds of cleared ocular inflammation vs usual treatment group ([10]; 900 μg, PP, day 7): 0.84 | odds of cleared ocular inflammation vs usual treatment group ([10]; 900 μg, PP, day 14): 1.12 | odds of cleared ocular inflammation vs usual treatment group ([10]; 900 μg, PP, day 28): 1.26 | patients with rescue medication introduced ([10]; 900 μg, not significant vs dexamethasone): 14.6% | tolerance (body weight) ([11]; 1 mg/kg/inj i.v.): 내약성이 우수함 | T/C ([11]; 1 mg/kg/inj i.v. [Q4Dx4]x2): 120% | mean survival time (as headed) ([11]; 1 mg/kg/inj i.v. [Q4Dx4]x2, vehicle 102): 123 일 | median survival time ± SD (as headed) ([11]; 1 mg/kg/inj i.v. [Q4Dx4]x2 from D10, D41, vehicle 102 ± 8): 111 ± 14 days | serum creatinine vs untreated ischemic rats (Wistar rats [12]): 보다 낮은 혈청 크레아티닌을 보였다 | AUC 1-8 g (allodynia) vs vehicle ([13]; 50 mg/mL i.ves.): 현저하게 감소되었다 | AUC 8-60 g (hyperalgesia) vs vehicle ([13]; 50 mg/mL i.ves.): 감소되었다 | haemorrhage score ([13]; 50 mg/mL i.ves.): 통계적으로 현저한 것에 이르지는 않았다 | nociceptive scores vs vehicle ([13]; 50 mg/mL i.ves.): 현저하게 감소시켰다 | urinary bladder wall thickness ([13]; 50 mg/mL i.ves.): 현저하게 감소되었다 | nociceptive threshold vs vehicle ([13]; 50 mg/mL, 500 μL i.ves.): 현저하게 증가하였다 | nociceptive threshold vs vehicle ([14]; 24 h after CYP, p<0.01): 현저하게 증가하였다 | AUC 1-8 g (allodynia) vs vehicle ([14]; p<0.001): 현저하게 감소되었다 | AUC 8-60 g (hyperalgesia) vs vehicle ([14]; p<0.001): 현저하게 감소되었다 | nociceptive scores vs vehicle ([14]; p<0.001): 현저하게 감소시켰다 | JNK activity (pJNK/JNK) [15, 21]: 변화는 관찰되지 않았다 | decrease of apoptosis (cleaved PARP) [15, 21]: 37% | decrease of caspase 3 activity ([15]; 10 μM, 2 μM Aβ42): 71% | decrease of cleaved PARP expression level ([15]; 10 μM, 2 μM Aβ42): 55% | decrease of cleaved caspase 3 expression level ([15]; 10 μM, 2 μM Aβ42): 93% | change of c-Jun expression vs stressed neurons without peptide [15, 22]: -65% | change of c-Jun phosphorylation vs stressed neurons without peptide [15, 22]: -74% | decrease of PARP expression level vs treated WT neurons [16, 23]: 93% | decrease of caspase 3 activity vs treated WT neurons [16, 23]: 87% | decrease of cleaved caspase 3 vs treated WT neurons [16, 23]: 83% | change of JNK activation ([16]; peptide pre-treatment (XG-102 10 μM), 2 μM Aβ42): -35% | c-Jun activation ([16]; peptide pre-treatment, 2 μM Aβ42): 변화시키지 않았다 | tissue accumulation [17]: 간, 비장 및 골수 대부분에서 XG-102 펩타이드의 축적 | accumulation in liver, especially Kupffer cells [18]: 명백한 축적 | PMA & ionomycin-induced IFNg, IL-6, IL-2 production (Jurkat cells): 사이토카인 방출을 억제한다 | LPS-induced TNFa, IL-6, Rantes release (murine macrophages): 사이토카인 방출을 억제한다 | PMA & ionomycin-induced TNFa, IFNg production (murine T cells): 사이토카인 방출을 억제한다 | NOAEL [19]: ~20 µg | safety and tolerability [20]: 안정하고 내약성이 우수하다
